ChEMBL document CHEMBL1201862, “PubChem BioAssay data set” (2004)
Calls of active or inactive are those of the source.

Legend:
[1] = THP-1 cell cytotoxicity, dose response, cytotoxicity control for non-replicating M. tuberculosis project (AID 489025); assay type: functional
cells = assay type: functional
Hexokinase HKDC1 = molecular target: T1, Hexokinase HKDC1 (Homo sapiens, UniProt Q2TB90); test: HKDC1 hexokinase inhibitors, dose response, biochemical, W721R variant (AID 504729); assay type: functional
T1 sequence (Q2TB90 whole entry): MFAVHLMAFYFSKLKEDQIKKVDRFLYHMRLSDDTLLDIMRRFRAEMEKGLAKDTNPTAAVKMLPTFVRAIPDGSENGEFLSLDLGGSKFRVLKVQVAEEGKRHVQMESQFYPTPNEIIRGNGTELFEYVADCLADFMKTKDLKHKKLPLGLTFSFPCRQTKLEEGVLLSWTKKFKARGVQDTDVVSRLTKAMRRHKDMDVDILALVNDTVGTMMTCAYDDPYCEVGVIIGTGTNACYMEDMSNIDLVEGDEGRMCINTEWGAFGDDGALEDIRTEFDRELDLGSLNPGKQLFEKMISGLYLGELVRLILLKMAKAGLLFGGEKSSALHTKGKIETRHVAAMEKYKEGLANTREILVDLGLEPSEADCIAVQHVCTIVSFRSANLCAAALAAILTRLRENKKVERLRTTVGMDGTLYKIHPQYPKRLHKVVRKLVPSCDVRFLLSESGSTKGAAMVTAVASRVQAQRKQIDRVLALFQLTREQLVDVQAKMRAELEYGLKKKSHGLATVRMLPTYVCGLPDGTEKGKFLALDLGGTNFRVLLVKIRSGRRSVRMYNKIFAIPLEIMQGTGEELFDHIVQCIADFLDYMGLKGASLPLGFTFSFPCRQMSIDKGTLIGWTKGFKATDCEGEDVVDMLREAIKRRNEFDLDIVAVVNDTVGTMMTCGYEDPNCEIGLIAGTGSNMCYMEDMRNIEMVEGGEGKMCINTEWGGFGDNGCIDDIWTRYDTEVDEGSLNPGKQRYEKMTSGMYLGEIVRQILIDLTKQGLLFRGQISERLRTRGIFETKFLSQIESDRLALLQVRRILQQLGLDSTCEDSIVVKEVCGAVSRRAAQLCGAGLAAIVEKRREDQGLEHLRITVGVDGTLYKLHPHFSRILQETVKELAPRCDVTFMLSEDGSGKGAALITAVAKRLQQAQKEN

[2] = molecular target: Peroxisome proliferator-activated receptor gamma/Nuclear receptor coactivator 2 (Homo sapiens, UniProt P37231); assay type: functional;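 also: agonist potency for raising coactivator recruitment to the receptor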
Chain of Peroxisome proliferator-activated receptor gamma/Nuclear receptor coactivator 2 (P37231 whole entry): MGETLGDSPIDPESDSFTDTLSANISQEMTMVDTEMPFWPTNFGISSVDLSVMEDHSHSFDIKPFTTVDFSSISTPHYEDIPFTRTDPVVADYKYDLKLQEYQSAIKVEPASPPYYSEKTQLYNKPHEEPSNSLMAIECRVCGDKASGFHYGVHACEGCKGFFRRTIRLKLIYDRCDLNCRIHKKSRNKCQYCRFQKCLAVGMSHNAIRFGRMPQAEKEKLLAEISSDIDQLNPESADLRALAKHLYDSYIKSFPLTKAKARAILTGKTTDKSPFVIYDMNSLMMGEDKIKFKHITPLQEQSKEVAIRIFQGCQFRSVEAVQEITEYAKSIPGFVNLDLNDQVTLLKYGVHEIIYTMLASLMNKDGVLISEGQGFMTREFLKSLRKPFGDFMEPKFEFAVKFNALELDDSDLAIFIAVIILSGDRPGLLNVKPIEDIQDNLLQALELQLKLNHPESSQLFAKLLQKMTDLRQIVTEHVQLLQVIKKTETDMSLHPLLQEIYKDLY
Chain of Peroxisome proliferator-activated receptor gamma/Nuclear receptor coactivator 2 (Q15596 whole entry, further chain): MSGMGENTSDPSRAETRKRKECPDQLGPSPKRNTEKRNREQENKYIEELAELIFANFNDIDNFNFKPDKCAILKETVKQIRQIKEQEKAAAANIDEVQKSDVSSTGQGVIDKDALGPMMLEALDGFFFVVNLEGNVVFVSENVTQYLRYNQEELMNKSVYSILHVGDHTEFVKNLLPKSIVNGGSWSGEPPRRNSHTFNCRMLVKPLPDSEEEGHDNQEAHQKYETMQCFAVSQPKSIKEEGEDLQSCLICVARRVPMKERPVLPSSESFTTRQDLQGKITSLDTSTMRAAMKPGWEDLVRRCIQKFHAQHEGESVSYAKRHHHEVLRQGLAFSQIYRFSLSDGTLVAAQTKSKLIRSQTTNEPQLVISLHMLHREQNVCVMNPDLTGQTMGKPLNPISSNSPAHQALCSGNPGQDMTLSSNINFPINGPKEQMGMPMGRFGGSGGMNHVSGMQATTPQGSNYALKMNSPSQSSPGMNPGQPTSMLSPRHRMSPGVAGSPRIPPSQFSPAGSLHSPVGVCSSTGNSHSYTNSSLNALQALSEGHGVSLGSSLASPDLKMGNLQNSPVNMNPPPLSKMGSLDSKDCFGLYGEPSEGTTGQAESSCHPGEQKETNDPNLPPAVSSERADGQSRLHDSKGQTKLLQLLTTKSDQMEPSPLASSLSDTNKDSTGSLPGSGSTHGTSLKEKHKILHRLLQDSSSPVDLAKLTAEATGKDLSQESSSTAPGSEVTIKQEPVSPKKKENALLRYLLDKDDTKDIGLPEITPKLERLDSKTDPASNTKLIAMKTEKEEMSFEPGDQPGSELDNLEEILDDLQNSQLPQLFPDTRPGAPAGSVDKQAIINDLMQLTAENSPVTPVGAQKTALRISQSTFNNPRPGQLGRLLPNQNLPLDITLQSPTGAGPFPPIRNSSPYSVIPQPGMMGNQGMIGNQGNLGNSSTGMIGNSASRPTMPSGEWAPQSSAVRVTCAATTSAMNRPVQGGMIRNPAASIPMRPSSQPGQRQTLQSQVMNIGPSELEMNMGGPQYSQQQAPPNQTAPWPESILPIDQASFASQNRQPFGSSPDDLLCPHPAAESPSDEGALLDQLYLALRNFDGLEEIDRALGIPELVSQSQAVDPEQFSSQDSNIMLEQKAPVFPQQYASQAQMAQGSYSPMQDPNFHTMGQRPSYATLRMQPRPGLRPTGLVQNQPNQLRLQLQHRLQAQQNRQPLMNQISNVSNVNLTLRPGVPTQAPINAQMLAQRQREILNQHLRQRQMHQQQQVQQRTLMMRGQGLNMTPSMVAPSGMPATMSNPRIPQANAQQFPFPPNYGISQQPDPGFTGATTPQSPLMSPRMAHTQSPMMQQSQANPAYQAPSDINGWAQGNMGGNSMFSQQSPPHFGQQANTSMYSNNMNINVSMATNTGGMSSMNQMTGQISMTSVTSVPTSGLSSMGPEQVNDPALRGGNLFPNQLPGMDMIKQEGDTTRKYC

[3] = molecular target: Peroxisome proliferator-activated receptor gamma/Nuclear receptor coactivator 1 (Homo sapiens, UniProt P37231); assay type: functional;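 also: agonist potency as compounds enhance coactivator SRC-1 recruitment to PPARgamma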
[4] = molecular target: Peroxisome proliferator-activated receptor gamma/Nuclear receptor coactivator 3 (Homo sapiens, UniProt P37231); assay type: functional;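 also: agonist potency for raising coactivator recruitment to the receptor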
Chain of Peroxisome proliferator-activated receptor gamma/Nuclear receptor coactivator 3 (P37231 whole entry): as the sequence (P37231 whole entry) above
Chain of Peroxisome proliferator-activated receptor gamma/Nuclear receptor coactivator 3 (Q9Y6Q9 whole entry, further chain): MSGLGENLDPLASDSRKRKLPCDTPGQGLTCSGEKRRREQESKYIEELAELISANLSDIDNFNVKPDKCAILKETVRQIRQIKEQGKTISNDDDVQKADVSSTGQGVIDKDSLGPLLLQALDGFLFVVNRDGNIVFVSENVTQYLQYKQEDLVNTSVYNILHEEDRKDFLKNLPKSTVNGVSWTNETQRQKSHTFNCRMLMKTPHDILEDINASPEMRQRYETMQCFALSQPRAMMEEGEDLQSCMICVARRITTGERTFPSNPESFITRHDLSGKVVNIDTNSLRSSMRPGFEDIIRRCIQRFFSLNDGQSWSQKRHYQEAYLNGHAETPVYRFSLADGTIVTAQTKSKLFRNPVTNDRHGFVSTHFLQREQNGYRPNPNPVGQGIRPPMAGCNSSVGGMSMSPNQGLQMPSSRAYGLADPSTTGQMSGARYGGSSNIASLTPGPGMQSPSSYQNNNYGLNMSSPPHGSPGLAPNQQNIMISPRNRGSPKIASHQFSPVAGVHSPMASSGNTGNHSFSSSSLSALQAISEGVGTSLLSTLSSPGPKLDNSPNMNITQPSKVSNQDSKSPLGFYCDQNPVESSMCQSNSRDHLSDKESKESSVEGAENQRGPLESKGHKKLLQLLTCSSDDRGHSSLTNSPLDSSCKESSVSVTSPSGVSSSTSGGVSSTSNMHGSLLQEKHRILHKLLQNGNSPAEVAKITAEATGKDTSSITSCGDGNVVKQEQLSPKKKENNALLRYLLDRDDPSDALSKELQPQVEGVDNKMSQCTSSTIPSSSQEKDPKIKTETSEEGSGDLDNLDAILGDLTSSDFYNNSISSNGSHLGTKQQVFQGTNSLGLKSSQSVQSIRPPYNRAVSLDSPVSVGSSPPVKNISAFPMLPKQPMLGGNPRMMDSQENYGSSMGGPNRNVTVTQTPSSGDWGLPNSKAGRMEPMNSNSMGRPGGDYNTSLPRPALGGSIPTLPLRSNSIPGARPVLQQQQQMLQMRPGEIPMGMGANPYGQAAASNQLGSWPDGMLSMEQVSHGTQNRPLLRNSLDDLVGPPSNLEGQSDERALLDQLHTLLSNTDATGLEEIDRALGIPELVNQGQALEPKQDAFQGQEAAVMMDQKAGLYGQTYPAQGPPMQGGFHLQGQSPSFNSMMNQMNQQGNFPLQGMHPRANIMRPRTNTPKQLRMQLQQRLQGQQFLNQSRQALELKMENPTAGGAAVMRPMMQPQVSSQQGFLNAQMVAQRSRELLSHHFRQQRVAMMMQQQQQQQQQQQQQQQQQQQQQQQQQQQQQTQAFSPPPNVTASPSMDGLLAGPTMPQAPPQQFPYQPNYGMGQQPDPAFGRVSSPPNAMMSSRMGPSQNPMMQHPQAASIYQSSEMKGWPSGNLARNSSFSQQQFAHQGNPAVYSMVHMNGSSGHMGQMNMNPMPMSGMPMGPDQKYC

[5] = cytotoxicity in HEK-293T cells, dose response, cytotoxicity control for BCR NF-kB inhibitor project, luminescence, B-cell screen hits (AID 489021); assay type: functional, cell-based;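 also: HEK-293T cells carrying an NF-kB luciferase reporter; cells exposed to compound for about 14 hours before viability readout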
Bcl-2-like protein 10 = molecular target: T2, Bcl-2-like protein 10 (Homo sapiens, UniProt Q9HD36); test: displacers of TR3 peptide from Bcl-B, primary screen, selectivity assay for Bfl-1 inhibitor project, biochemical, fluorescence polarization, FITC-TR3 peptide (AID 748);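 also: fluorescence polarization from a fluorescein-labelled TR3 peptide binding purified Bcl-B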
T2 sequence (Q9HD36 whole entry): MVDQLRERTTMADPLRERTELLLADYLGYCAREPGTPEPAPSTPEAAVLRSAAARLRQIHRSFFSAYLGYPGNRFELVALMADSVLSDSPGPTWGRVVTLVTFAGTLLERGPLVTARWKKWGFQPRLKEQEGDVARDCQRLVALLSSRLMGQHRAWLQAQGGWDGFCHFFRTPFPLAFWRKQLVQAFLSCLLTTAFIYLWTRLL

[6] = molecular target: DNA dC->dU-editing enzyme APOBEC-3A (Homo sapiens, UniProt P31941); test: APOBEC3A DNA deaminase inhibitors, dose response, biochemical (AID 504722); assay type: functional
Chain of DNA dC->dU-editing enzyme APOBEC-3A (P31941 whole entry): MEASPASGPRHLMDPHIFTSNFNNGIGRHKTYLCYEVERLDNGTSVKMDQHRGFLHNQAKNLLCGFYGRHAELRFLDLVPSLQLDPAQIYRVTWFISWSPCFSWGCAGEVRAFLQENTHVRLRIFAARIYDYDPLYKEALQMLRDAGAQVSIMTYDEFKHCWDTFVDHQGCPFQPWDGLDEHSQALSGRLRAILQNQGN

[7] = molecular target: DNA dC->dU-editing enzyme APOBEC-3G (Homo sapiens, UniProt Q9HC16); test: Dose Response confirmation of small molecule APOBEC3G DNA Deaminase Inhibitors via a fluorescence-based single-stranded DNA deaminase assay. [Related pubchem assays (depositor defined):AID493012, AID493028]; assay type: functional
Chain of DNA dC->dU-editing enzyme APOBEC-3G (Q9HC16 whole entry, the tested form may be a part): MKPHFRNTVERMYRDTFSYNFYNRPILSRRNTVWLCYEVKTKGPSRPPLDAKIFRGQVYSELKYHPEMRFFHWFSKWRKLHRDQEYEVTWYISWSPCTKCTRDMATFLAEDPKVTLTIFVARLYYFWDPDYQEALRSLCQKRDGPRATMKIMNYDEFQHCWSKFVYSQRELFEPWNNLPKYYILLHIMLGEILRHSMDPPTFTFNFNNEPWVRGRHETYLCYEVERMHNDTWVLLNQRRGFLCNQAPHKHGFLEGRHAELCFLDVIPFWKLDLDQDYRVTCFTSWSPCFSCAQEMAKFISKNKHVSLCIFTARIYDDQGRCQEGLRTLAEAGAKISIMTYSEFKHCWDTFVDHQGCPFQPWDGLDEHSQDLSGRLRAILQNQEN

Estrogen receptor = molecular target: T3, Estrogen receptor (Homo sapiens, UniProt P03372); test: potentiators of ERα–SRC-1 coactivator binding, dose response, biochemical, TR-FRET, ERα LBD (AID 737)
T3 sequence (P03372 whole entry): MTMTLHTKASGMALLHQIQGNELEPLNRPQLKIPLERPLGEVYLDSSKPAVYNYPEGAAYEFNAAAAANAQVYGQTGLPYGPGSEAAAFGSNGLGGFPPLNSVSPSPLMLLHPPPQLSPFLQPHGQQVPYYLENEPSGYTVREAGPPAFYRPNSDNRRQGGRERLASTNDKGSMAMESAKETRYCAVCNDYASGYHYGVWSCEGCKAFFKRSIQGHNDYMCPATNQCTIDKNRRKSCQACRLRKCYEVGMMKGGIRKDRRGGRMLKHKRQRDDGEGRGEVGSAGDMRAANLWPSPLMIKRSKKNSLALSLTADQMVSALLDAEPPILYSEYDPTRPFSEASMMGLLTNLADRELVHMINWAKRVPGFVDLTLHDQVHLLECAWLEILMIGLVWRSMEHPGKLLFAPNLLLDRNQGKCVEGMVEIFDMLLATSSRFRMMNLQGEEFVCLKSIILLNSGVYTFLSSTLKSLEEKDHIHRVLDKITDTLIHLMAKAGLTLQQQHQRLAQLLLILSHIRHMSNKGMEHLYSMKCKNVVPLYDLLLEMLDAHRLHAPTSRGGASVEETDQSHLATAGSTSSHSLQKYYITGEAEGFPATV

Structure (SMILES): CCCCCCn1c(=O)c(C(=O)Nc2nnc(C)s2)c(O)c2ccccc21
- CC50 [1]: > 40 µM (active)
- IC50 (cells): 22.6 µM (active)

Structure (SMILES): Cc1ccc2cc(CCNC(=O)c3ccc(S(=O)(=O)N4CCCCC4)cc3)c(O)nc2c1
- IC50 (Hexokinase HKDC1): 8.17 µM (active)

Structure (SMILES): COc1ccccc1CN(C)C(=O)c1ccc2c(c1)NC(=O)CS2
- EC50 [2]: > 79.4 µM (not active)
- EC50 [3]: > 79.4 µM (not active)
- EC50 [4]: > 79.4 µM (not active)

Structure (SMILES): Cc1ccc(C(=O)OCC(=O)N(CC(C)C)c2c(N)n(Cc3ccccc3)c(=O)[nH]c2=O)o1
- IC50 [5]: > 80 µM (inactive)

Structure (SMILES): O=S1(=O)CC2N=C(N(Cc3ccc(F)cc3Cl)c3ccccc3F)SC2C1 (centres undefined)
- EC50 [2]: > 79.4 µM (not active)
- EC50 [3]: > 79.4 µM (not active)
- EC50 [4]: > 79.4 µM (not active)

Structure (SMILES): CC(=O)C1=C(C)OC(N)=C(C#N)C1c1ccco1 (centres undefined)
- IC50 (Bcl-2-like protein 10): > 6.25 µM (inactive)

Structure (SMILES): Cc1ccc(/C=C2\SC(N)=NC2=O)s1
- EC50 [2]: > 79.4 µM (not active)
- EC50 [3]: > 79.4 µM (not active)
- EC50 [4]: > 79.4 µM (not active)

Structure (SMILES): COc1ccc(N2C(=O)C[S+]([O-])C(c3ccccc3)C2=O)cc1 (centres undefined)
- IC50 [6]: > 100 µM (inactive)
- IC50 [7]: 7.26 µM (active)

Structure (SMILES): CCOC(=O)c1ccc(-c2ccc(C(=O)Nc3cccnc3)o2)cc1
- CC50 [1]: 29.7 µM (active)
- IC50 (cells): 7.87 µM (active)

Structure (SMILES): C[C@]12CC[C@@H]3c4ccc(O)cc4[C@@H](O)C[C@H]3[C@@H]1CC[C@@H]2O
- EC50 (Estrogen receptor): 12.7 µM (active)
